From ChEMBL document CHEMBL4004849, “Tetrazolylmethyl quinolines: Design, docking studies, synthesis, anticancer and antifungal analyses” (2017)
Converted amounts (≈) assume the structure as drawn. The source made the active and inactive calls. No cut-off for these calls is given here.

Assays:
Assay type in all cases: functional
HCT-116 = assay: Growth inhibition of human HCT116 cells at 10^-5 M incubated for 48 hrs by sulforhodamine B assay relative to control
OVCAR-3 = assay: Growth inhibition of human OVCAR3 cells at 10^-5 M incubated for 48 hrs by sulforhodamine B assay relative to control
SNB-19 = assay: Growth inhibition of human SNB19 cells at 10^-5 M incubated for 48 hrs by sulforhodamine B assay relative to control
RXF 393 = assay: Growth inhibition of human RXF393 cells at 10^-5 M incubated for 48 hrs by sulforhodamine B assay relative to control
Candida albicans = assay: Antifungal activity against Candida albicans at 100 ug/ml by disc diffusion method; settings: read-out: IZ
BT-549 = assay: Growth inhibition of human BT549 cells at 10^-5 M incubated for 48 hrs by sulforhodamine B assay relative to control
SK-OV-3 = assay: Growth inhibition of human SKOV3 cells at 10^-5 M incubated for 48 hrs by sulforhodamine B assay relative to control
NCI-H226 = assay: Growth inhibition of human NCI-H226 cells at 10^-5 M incubated for 48 hrs by sulforhodamine B assay relative to control
MDA-MB-435 = assay: Growth inhibition of human MDA-MB-435 cells at 10^-5 M incubated for 48 hrs by sulforhodamine B assay relative to control
SR = assay: Growth inhibition of human SR cells at 10^-5 M incubated for 48 hrs by sulforhodamine B assay relative to control
Hs-578T = assay: Growth inhibition of human Hs 578T cells at 10^-5 M incubated for 48 hrs by sulforhodamine B assay relative to control
KM12 = assay: Growth inhibition of human KM12 cells at 10^-5 M incubated for 48 hrs by sulforhodamine B assay relative to control
SK-MEL-28 = assay: Growth inhibition of human SK-MEL-28 cells at 10^-5 M incubated for 48 hrs by sulforhodamine B assay relative to control
M14 = assay: Growth inhibition of human M14 cells at 10^-5 M incubated for 48 hrs by sulforhodamine B assay relative to control
SF-295 = assay: Growth inhibition of human SF295 cells at 10^-5 M incubated for 48 hrs by sulforhodamine B assay relative to control
MDA-MB-231 = assay: Growth inhibition of human MDA-MB-231/ATCC cells at 10^-5 M incubated for 48 hrs by sulforhodamine B assay relative to control
UO-31 = assay: Growth inhibition of human UO31 cells at 10^-5 M incubated for 48 hrs by sulforhodamine B assay relative to control
NCI-H23 = assay: Growth inhibition of human NCI-H23 cells at 10^-5 M incubated for 48 hrs by sulforhodamine B assay relative to control
COLO 205 = assay: Growth inhibition of human COLO205 cells at 10^-5 M incubated for 48 hrs by sulforhodamine B assay relative to control
IGROV-1 = assay: Growth inhibition of human IGROV1 cells at 10^-5 M incubated for 48 hrs by sulforhodamine B assay relative to control
OVCAR-4 = assay: Growth inhibition of human OVCAR4 cells at 10^-5 M incubated for 48 hrs by sulforhodamine B assay relative to control
NCI-H460 = assay: Growth inhibition of human NCI-H460 cells at 10^-5 M incubated for 48 hrs by sulforhodamine B assay relative to control
SW-620 = assay: Growth inhibition of human SW620 cells at 10^-5 M incubated for 48 hrs by sulforhodamine B assay relative to control
SF-268 = assay: Growth inhibition of human SF268 cells at 10^-5 M incubated for 48 hrs by sulforhodamine B assay relative to control
NCI-H522 = assay: Growth inhibition of human NCI-H522 cells at 10^-5 M incubated for 48 hrs by sulforhodamine B assay relative to control
K562 = assay: Growth inhibition of human K562 cells at 10^-5 M incubated for 48 hrs by sulforhodamine B assay relative to control
U-251 = assay: Growth inhibition of human U251 cells at 10^-5 M incubated for 48 hrs by sulforhodamine B assay relative to control
HT-29 = assay: Growth inhibition of human HT-29 cells at 10^-5 M incubated for 48 hrs by sulforhodamine B assay relative to control
UACC-62 = assay: Growth inhibition of human UACC62 cells at 10^-5 M incubated for 48 hrs by sulforhodamine B assay relative to control
CAKI-1 = assay: Growth inhibition of human Caki1 cells at 10^-5 M incubated for 48 hrs by sulforhodamine B assay relative to control
Aspergillus fumigatus [1] = assay: Antifungal activity against Aspergillus fumigatus at 100 ug/ml by disc diffusion method; settings: read-out: IZ
OVCAR-8 = assay: Growth inhibition of human OVCAR8 cells at 10^-5 M incubated for 48 hrs by sulforhodamine B assay relative to control
MCF7 = assay: Growth inhibition of human MCF7 cells at 10^-5 M incubated for 48 hrs by sulforhodamine B assay relative to control
OVCAR-5 = assay: Growth inhibition of human OVCAR5 cells at 10^-5 M incubated for 48 hrs by sulforhodamine B assay relative to control
MOLT-4 = assay: Growth inhibition of human MOLT4 cells at 10^-5 M incubated for 48 hrs by sulforhodamine B assay relative to control
UACC-257 = assay: Growth inhibition of human UACC257 cells at 10^-5 M incubated for 48 hrs by sulforhodamine B assay relative to control
MDA-MB-468 = assay: Growth inhibition of human MDA-MB-468 cells at 10^-5 M incubated for 48 hrs by sulforhodamine B assay relative to control
SF-539 = assay: Growth inhibition of human SF539 cells at 10^-5 M incubated for 48 hrs by sulforhodamine B assay relative to control
HCC 2998 = assay: Growth inhibition of human HCC2998 cells at 10^-5 M incubated for 48 hrs by sulforhodamine B assay relative to control
SK-MEL-5 = assay: Growth inhibition of human SK-MEL-5 cells at 10^-5 M incubated for 48 hrs by sulforhodamine B assay relative to control
Aspergillus fumigatus [2] = assay: Antifungal activity against Aspergillus fumigatus after 24 hrs by serial dilution method
ACHN = assay: Growth inhibition of human ACHN cells at 10^-5 M incubated for 48 hrs by sulforhodamine B assay relative to control
Malme-3M = assay: Growth inhibition of human MALME-3M cells at 10^-5 M incubated for 48 hrs by sulforhodamine B assay relative to control
A549 = assay: Growth inhibition of human A549/ATCC cells at 10^-5 M incubated for 48 hrs by sulforhodamine B assay relative to control

Clc1nc2ccccc2cc1Cn1nnnc1CSc1ccccc1
growth inhibition (GI) (HCT-116): Active | growth inhibition (GI) (OVCAR-3): Active | growth inhibition (GI) (SNB-19): Active | growth inhibition (GI) (RXF 393): Active | zone of inhibition at 100 µg/mL (Candida albicans): 12 mm | growth inhibition (GI) (BT-549): Active | growth inhibition (GI) (SK-OV-3): Active | growth inhibition (GI) (NCI-H226): Active | growth inhibition (GI) (MDA-MB-435): Active | growth inhibition (GI) (SR): Active | growth inhibition (GI) (Hs-578T): Active | growth inhibition (GI) (KM12): Active | growth inhibition (GI) (SK-MEL-28): Active | growth inhibition (GI) (M14): Active | growth inhibition (GI) (SF-295): Active | growth inhibition (GI) (MDA-MB-231): Active | growth inhibition (GI) (UO-31): Active | growth inhibition (GI) (NCI-H23): Active | growth inhibition (GI) (COLO 205): Active | growth inhibition (GI) (IGROV-1): Active | growth inhibition (GI) (OVCAR-4): Active | growth inhibition (GI) (NCI-H460): Active | growth inhibition (GI) (SW-620): Active | growth inhibition (GI) (SF-268): Active | growth inhibition (GI) (NCI-H522): Active | growth inhibition (GI) (K562): Active | growth inhibition (GI) (U-251): Active | growth inhibition (GI) (HT-29): Active | growth inhibition (GI) (UACC-62): Active | growth inhibition (GI) (CAKI-1): Active | zone of inhibition at 100 µg/mL (Aspergillus fumigatus [1]): 16 mm | growth inhibition (GI) (OVCAR-8): Active | growth inhibition (GI) (MCF7): Active | growth inhibition (GI) (OVCAR-5): Active | growth inhibition (GI) (MOLT-4): Active | growth inhibition (GI) (UACC-257): Active | growth inhibition (GI) (MDA-MB-468): Active | growth inhibition (GI) (SF-539): Active | growth inhibition (GI) (HCC 2998): Active | growth inhibition (GI) (SK-MEL-5): Active | MIC (Aspergillus fumigatus [2]): 25 µg/mL (≈ 68 µM) | growth inhibition (GI) (ACHN): Active | growth inhibition (GI) (Malme-3M): Active | growth inhibition (GI) (A549): Active

COc1ccc2nc(Cl)c(Cn3nnnc3CSc3ccccc3)cc2c1
growth inhibition (GI) (HCT-116): Active | growth inhibition (GI) (OVCAR-3): Active | growth inhibition (GI) (SNB-19): Active | growth inhibition (GI) (RXF 393): Active | zone of inhibition at 100 µg/mL (Candida albicans): 18 mm | growth inhibition (GI) (BT-549): Active | growth inhibition (GI) (SK-OV-3): Active | growth inhibition (GI) (NCI-H226): Active | growth inhibition (GI) (MDA-MB-435): Active | growth inhibition (GI) (SR): Active | growth inhibition (GI) (Hs-578T): Active | growth inhibition (GI) (KM12): Active | growth inhibition (GI) (SK-MEL-28): Active | growth inhibition (GI) (M14): Active | growth inhibition (GI) (SF-295): Active | growth inhibition (GI) (MDA-MB-231): Active | growth inhibition (GI) (UO-31): Active | growth inhibition (GI) (NCI-H23): Active | growth inhibition (GI) (COLO 205): Active | growth inhibition (GI) (IGROV-1): Active | growth inhibition (GI) (OVCAR-4): Active | growth inhibition (GI) (NCI-H460): Active | growth inhibition (GI) (SW-620): Active | growth inhibition (GI) (SF-268): Active | growth inhibition (GI) (NCI-H522): Active | growth inhibition (GI) (K562): Active | growth inhibition (GI) (U-251): Active | growth inhibition (GI) (HT-29): Active | growth inhibition (GI) (UACC-62): Active | growth inhibition (GI) (CAKI-1): Active | zone of inhibition at 100 µg/mL (Aspergillus fumigatus [1]): 18 mm | growth inhibition (GI) (OVCAR-8): Active | growth inhibition (GI) (MCF7): Active | growth inhibition (GI) (OVCAR-5): Active | growth inhibition (GI) (MOLT-4): Active | growth inhibition (GI) (UACC-257): Active | growth inhibition (GI) (MDA-MB-468): Active | growth inhibition (GI) (SF-539): Active | growth inhibition (GI) (HCC 2998): Active | growth inhibition (GI) (SK-MEL-5): Active | MIC (Aspergillus fumigatus [2]): 10 µg/mL (≈ 25.1 µM) | growth inhibition (GI) (ACHN): Active | growth inhibition (GI) (Malme-3M): Active | growth inhibition (GI) (A549): Active
